Results taken from patent US9969758B2, “Antimicrobial compounds” (BIOMERIEUX, priority 2014, dated 2018).
Values after ≈ are worked out from the molar mass of the structure shown.

Tests used:
Assay in all cases: MIC by agar dilution
Salmonella isolates = assay type: cell-based, Salmonella spp; details: three Salmonella isolates; read-out: MICs
Source text: (§1) Bacterial isolates. […] These included Citrobacter freundii (n=5), other species of Citrobacter (n=4), Enterobacter aerogenes (n=1), Enterobacter cloacae (n=27), Escherichia coli (n=53), Klebsiella oxytoca (n=5), Klebsiella pneumoniae (n=87), Kluyvera spp (n=1), Proteus mirabilis (n=8), Providencia rettgeri (n=2), Salmonella spp (n=3), and Serratia marcescens (n=1). Among these 197 isolates, there were 128 (65%) carbapenemase producers, including; 87 with NDM-1, 9 with IMP, 11 with KPC, 14 with OXA-48 and 7 with VIM. The majority of the carbapenemase producers jointly produced broad-spectrum β-lactamases (BSBL) or cephalosporinases (AmpC β-lactamases), but the latter are not documented for the sake of clarity.
(§2) Determining the minimum inhibitory concentrations (MIC). All the MICs were determined using an agar dilution method. This required use of a medium without a defined antagonist (peptone-free), prepared as described previously with the inclusion of 2% horse blood lysed with saponin, 25.0 μg/mL of NAD and 25.0 μg/mL of hemin [17]. […] The MICs of fosfomycin were determined by the same method, except that the IsoSensitest medium (Oxoid, Basingstoke, United Kingdom) was used, plus 25.0 μg/mL of glucose-6-phosphate (Sigma, Poole, United Kingdom) and an extended range of fosfomycin concentrations. […]

E. aerogenes (n=1) = assay type: cell-based, Enterobacter aerogenes
Source text: as §1, §2

K. pneumoniae (87) = assay type: cell-based, Klebsiella pneumoniae; details: Klebsiella pneumoniae
Summary of the method: (§3)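 Agar dilution on peptone-free medium with 2% lysed horse blood, NAD and hemin (25.0 μg/mL each), compounds 0.0031 to 8.0 μg/mL; inoculum 10 000 CFU/spot, 22 h at 37° C. Fosfomycin tested in IsoSensitest medium plus 25.0 μg/mL glucose-6-phosphate; at least two replicates.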

S. marcescens (n=1) = assay type: cell-based, Serratia marcescens
Source text: as §1, §2

E. faecalis (11) = assay type: cell-based, Enterococcus faecalis; details: Enterococcus faecalis, E. faecalis (11)
Summary of the method: (§4)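 Agar dilution in peptone-free medium with lysed horse blood, NAD and hemin; compounds at 0.0031–8.0 μg/mL (0.016–32 μg/mL for Gram-positives). Inoculum 10 000 CFU/spot, 22 h at 37 °C; fosfomycin tested in IsoSensitest plus glucose-6-phosphate. Clinical and control isolates, at least two independent replicates.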

AmpC (22) = assay type: cell-based, Enterobacteriaceae
Summary of the method: as §3

K. oxytoca = assay type: cell-based, Klebsiella oxytoca; details: Klebsiella oxytoca; one of the five isolates of K. oxytoca
Source text: as §1, §2

E. cloacae (27) = assay type: cell-based, Enterobacter cloacae
Summary of the method: as §3

Kluyvera sp. (n=1) = assay type: cell-based, Kluyvera spp
Source text: as §1, §2

E. faecium (34) = assay type: cell-based, Enterococcus faecium
Summary of the method: as §4

Citrobacter (n=9) = assay type: cell-based
Summary of the method: as §3

Enterobacteriaceae (197) = assay type: cell-based; details: Enterobacteriaceae (197)
Summary of the method: as §3

[1] = tested on: Enterobacteriaceae with a broad-spectrum β-lactamase; assay type: cell-based
Summary of the method: as §3

[2] = tested on: carbapenemase-producing Enterobacteriaceae; assay type: cell-based
Summary of the method: as §3

[3] = tested on: methicillin-resistant Staphylococcus aureus; assay type: cell-based
Summary of the method: as §4

[4] = tested on: methicillin-sensitive Staphylococcus aureus; assay type: cell-based; details: MSSA (13)
Summary of the method: as §4

All Enterococci (50) = assay type: cell-based; details: All Enterococci (50)
Summary of the method: as §4

[5] = tested on: glycopeptide-resistant enterococci; assay type: cell-based
Summary of the method: as §4

E. coli (53) = assay type: cell-based, Escherichia coli
Summary of the method: as §3

[6] = read-out: Modal MIC (most frequent MIC)

## C[C@H](N)C(=O)N[C@@H](C)P(=O)(O)O [Alafosfalin, L-alanyl-L-1-aminoethylphosphonic acid]
Salmonella isolates
  MIC: ≥ 8 µg/mL
E. aerogenes (n=1)
  concentration to which all the isolates were sensitive: ≤ 4 µg/mL
K. pneumoniae (87); K. pneumoniae (87), read-out: MIC50
  MIC50: 2 µg/mL (≈ 10.2 µM)
K. pneumoniae (87); K. pneumoniae (87), read-out: MIC90
  MIC90: > 8 µg/mL
K. pneumoniae (87); K. pneumoniae (87), read-out: Modal MIC (most frequent MIC)
  MIC: 2 µg/mL (≈ 10.2 µM)
K. pneumoniae (87); K. pneumoniae isolates, at 8 μg/mL, read-out: isolates inhibited
  percent of isolates inhibited at 8 µg/mL: 87%
S. marcescens (n=1)
  concentration to which all the isolates were sensitive: ≤ 4 µg/mL
E. faecalis (11); read-out: MIC50
  MIC50: 8 µg/mL (≈ 40.8 µM)
E. faecalis (11); read-out: MIC90
  MIC90: 32 µg/mL (≈ 163 µM)
E. faecalis (11); [6]
  MIC: 8 µg/mL (≈ 40.8 µM)
AmpC (22)
  MIC50: 4 µg/mL (≈ 20.4 µM)
  MIC90: > 8 µg/mL
AmpC (22); [6]
  MIC: > 8 µg/mL
K. oxytoca
  MIC: > 8 µg/mL
E. cloacae (27); E. cloacae
  activity relative to fosfomycin: ~32 times
E. cloacae (27); E. cloacae (27)
  MIC Range: 0.125 to 4 µg/mL
E. cloacae (27); E. cloacae isolates (n=27)
  concentration by which all the isolates were inhibited: 4 µg/mL
E. cloacae (27); Enterobacter cloacae, E. cloacae (27), read-out: MIC50
  MIC50: 1 µg/mL (≈ 5.1 µM)
E. cloacae (27); Enterobacter cloacae, E. cloacae (27), read-out: MIC90
  MIC90: 1 µg/mL (≈ 5.1 µM)
E. cloacae (27); Enterobacter cloacae, E. cloacae (27), read-out: Modal MIC (most frequent MIC)
  MIC: 1 µg/mL (≈ 5.1 µM)
Kluyvera sp. (n=1)
  concentration to which all the isolates were sensitive: ≤ 4 µg/mL
E. faecium (34); 34 E. faecium isolates (including 31 vancomycin-resistant)
  concentration by which all isolates were inhibited: 32 µg/mL
E. faecium (34); E. faecium (34)
  MIC Range: 4 to 32 µg/mL
E. faecium (34); Enterococcus faecium, E. faecium (34), read-out: MIC50
  MIC50: 16 µg/mL (≈ 81.6 µM)
E. faecium (34); Enterococcus faecium, E. faecium (34), read-out: MIC90
  MIC90: 16 µg/mL (≈ 81.6 µM)
E. faecium (34); Enterococcus faecium, E. faecium (34), read-out: Modal MIC (most frequent MIC)
  MIC: 16 µg/mL (≈ 81.6 µM)
Citrobacter (n=9)
  concentration to which all the isolates were sensitive: ≤ 4 µg/mL
Enterobacteriaceae (197); read-out: MIC50
  MIC50: 2 µg/mL (≈ 10.2 µM)
Enterobacteriaceae (197); read-out: MIC90
  MIC90: > 8 µg/mL
Enterobacteriaceae (197); [6]
  MIC: 2 µg/mL (≈ 10.2 µM)
[1]
  MIC50: 2 µg/mL (≈ 10.2 µM)
  MIC90: > 8 µg/mL
[1]; [6]
  MIC: 2 µg/mL (≈ 10.2 µM)
[2]
  MIC50: 1 µg/mL (≈ 5.1 µM)
  MIC90: 4 µg/mL (≈ 20.4 µM)
[2]; [6]
  MIC: 2 µg/mL (≈ 10.2 µM)
[3]; MRSA (37)
  MIC90: 8 µg/mL (≈ 40.8 µM)
  MIC Range: 0.125 to 16 µg/mL
[3]; Staphylococcus aureus, MRSA
  MIC50: 4 µg/mL (≈ 20.4 µM)
  MIC90: 8 µg/mL (≈ 40.8 µM)
[3]; Staphylococcus aureus, MRSA, read-out: Modal MIC (most frequent MIC)
  MIC: 4 µg/mL (≈ 20.4 µM)
[4]
  MIC Range: 0.25 to 16 µg/mL
[4]; Staphylococcus aureus, read-out: MIC50
  MIC50: 4 µg/mL (≈ 20.4 µM)
[4]; Staphylococcus aureus, read-out: MIC90
  MIC90: 8 µg/mL (≈ 40.8 µM)
[4]; Staphylococcus aureus, read-out: Modal MIC (most frequent MIC)
  MIC: 4 µg/mL (≈ 20.4 µM)
All Enterococci (50); read-out: MIC50
  MIC50: 16 µg/mL (≈ 81.6 µM)
All Enterococci (50); read-out: MIC90
  MIC90: > 32 µg/mL
All Enterococci (50); [6]
  MIC: 8 µg/mL (≈ 40.8 µM)
[5]
  MIC50: 16 µg/mL (≈ 81.6 µM)
  MIC90: > 32 µg/mL
[5]; [6]
  MIC: 16 µg/mL (≈ 81.6 µM)
E. coli (53); 53 isolates of E. coli
  concentration by which growth of all the isolates was inhibited: 2 µg/mL
E. coli (53); E. coli
  activity relative to that of fosfomycin: approximately four
E. coli (53); E. coli (53)
  MIC Range: ≤0.031-2 ^ μg/mL
E. coli (53); Escherichia coli, E. coli (53), read-out: MIC50
  MIC50: 0.125 µg/mL (≈ 0.637 µM)
E. coli (53); Escherichia coli, E. coli (53), read-out: MIC90
  MIC90: 0.25 µg/mL (≈ 1.27 µM)
E. coli (53); Escherichia coli, E. coli (53), read-out: Modal MIC (most frequent MIC)
  MIC: 0.063 µg/mL (≈ 0.321 µM)
